Test results: patent publication US10144732B2 (BIOGEN MA INC., priority 2014, dated 2018)
Structures can show the parent of a compound that is named as a salt. Where two headings read alike, the source gives them in different places.

Target: T1, Human ATX protein (Homo sapiens, UniProt Q13822)
T1 construct: made in house
Assay: ATX biochemical assay (FRET, FS-3 substrate)
Settings: FS-3 2 μM, ATX 1.0 μg/mL, 30 minutes preincubation, 2 hours reaction at room temperature
Summary of the method: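 FRET read-out: cleavage of FS-3 (2 μM final) unquenches fluorescein, measured at 485/538 nm after 2 h at room temperature. Before substrate addition, in-house-expressed human autotaxin (1.0 μg/mL) sat with compound for 30 min in pH 7.4 Tris/NaCl/KCl/CaCl2/MgCl2 buffer containing fatty acid free-BSA at 1 mg/mL.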

Structure (SMILES) | IC50 (FRET assay, read-out: IC50) | IC50 (IC50, FRET assay)
O=C(O)C1CCC(CC(=O)N2CCc3c(C(F)(F)F)nn(Cc4ccc(F)cc4)c3C2)C1 (mixture of isomers) [Example 6-7, 3-(2-(1-(4-Fluorobenzyl)-3-(trifluoromethyl)-4,5-dihydro-1H-pyrazolo[3,4-c]pyridin-6(7H)-yl)-2-oxoethyl)cyclopentanecarboxylic acid] | ≤ 100 nM | 
CCOC(=O)C1CCCN(CC(=O)N2CCc3c(C(F)(F)F)nn(Cc4ccc(Cl)cc4F)c3C2)CC1 (stereo not shown) [Example 12-17, TFA salt] | ≤ 100 nM | 
O=C(CC1C2CC3CC1CC(C(=O)O)(C3)C2)N1CCc2c(C(F)(F)F)nn(Cc3ccc(F)cc3)c2C1 (stereo not shown) [Example 5-55] | ≤ 100 nM | 
COC(=O)[C@H]1CC[C@H](N(C)C(=O)N2CCc3c(C(F)(F)F)nn(Cc4ccc(Cl)cc4F)c3C2)CC1 [Example 3-4, trans-Methyl 4-(1-(4-chloro-2-fluorobenzyl)-N-methyl-3-(trifluoromethyl)-4,5,6,7-tetrahydro-1H-pyrazolo[3,4-c]pyridine-6-carboxamido)cyclohexanecarboxylate] | 100 to 250 nM | 
N[C@H]1CC[C@H](CC(=O)N2CCc3c(C(F)(F)F)nn(Cc4ccc(Cl)cc4F)c3C2)CC1 [Example 9-19, 2-(trans-4-aminocyclohexyl)-1-(1-(4-chloro-2-fluorobenzyl)-3-(trifluoromethyl)-4,5-dihydro-1H-pyrazolo[3,4-c]pyridin-6(7H)-yl)ethanone TFA salt] | ≤ 100 nM | 
N[C@H]1CC[C@@H](CC(=O)N2CCc3c(C(F)(F)F)nn(Cc4ccc(F)cc4)c3C2)CC1 [Example 9-18, 2-(cis-4-Aminocyclohexyl)-1-(1-(4-fluorobenzyl)-3-(trifluoromethyl)-4,5-dihydro-1H-pyrazolo[3,4-c]pyridin-6(7H)-yl)ethanone TFA salt] | ≤ 100 nM | 
O=C(O)C1CC2(CC(CC(=O)N3CCc4c(C(F)(F)F)nn(Cc5ccc(F)cc5)c4C3)C2)C1 (stereo not shown) [Example 6-13, 6-(2-(1-(4-Fluorobenzyl)-3-(trifluoromethyl)-4,5-dihydro-1H-pyrazolo[3,4-c]pyridin-6(7H)-yl)-2-oxoethyl)spiro[3.3]heptane-2-carboxylic acid] | ≤ 100 nM | 
O=C(CN1CCCCC1)N1CCc2c(C(F)(F)F)nn(Cc3ccc(Cl)cc3F)c2C1 [Example 12-2, 1-(1-(4-Chloro-2-fluorobenzyl)-3-(trifluoromethyl)-4,5-dihydro-1H-pyrazolo[3,4-c]pyridin-6(7H)-yl)-2-(piperidin-1-yl)ethanone] | ≤ 100 nM | 
O=C(CC1CCOCC1)N1CCc2c(C(F)(F)F)nn(Cc3ccc(Cl)cc3F)c2C1 [Example 1-29, 1-(1-(4-Chloro-2-fluorobenzyl)-3-(trifluoromethyl)-4,5-dihydro-1H-pyrazolo[3,4-c]pyridin-6(7H)-yl)-2-(tetrahydro-2H-pyran-4-yl)ethanone] | ≤ 100 nM | 
COC(=O)N1CCCC(CC(=O)N2CCc3c(C(F)(F)F)nn(Cc4ccc(F)cc4)c3C2)C1 (stereo not shown) [Example 16-1, Methyl 3-(2-(1-(4-fluorobenzyl)-3-(trifluoromethyl)-4,5-dihydro-1H-pyrazolo[3,4-c]pyridin-6(7H)-yl)-2-oxoethyl)piperidine-1-carboxylate] | ≤ 100 nM | 
O=C(O)[C@H]1C2C3C[C@@H]1C(CC(=O)N1CCc4c(C(F)(F)F)nn(Cc5ccc(Cl)cc5F)c4C1)C32 (stereo partly drawn) [Example 6-16, (3R,4R)-5-(2-(1-(4-Chloro-2-fluorobenzyl)-3-(trifluoromethyl)-4,5-dihydro-1H-pyrazolo[3,4-c]pyridin-6(7H)-yl)-2-oxoethyl)tricyclo[2.2.1.02,6]heptane-3-carboxylic acid] | ≤ 100 nM | 
CCOC(=O)[C@H]1CC[C@H](CC(=O)N2CCc3c(C(F)(F)F)nn(Cc4ccc(C)cc4)c3C2)CC1 [Example 1-25, trans-Ethyl 4-(2-(1-(4-methylbenzyl)-3-(trifluoromethyl)-4,5-dihydro-1H-pyrazolo[3,4-c]pyridin-6(7H)-yl)-2-oxoethyl)cyclohexanecarboxylate] | ≤ 100 nM | 
CC1(C(=O)O)CCC(CC(=O)N2CCc3c(C(F)(F)F)nn(Cc4ccc(Cl)cc4F)c3C2)CC1 (mixture of isomers) [Example 6-5, 4-(2-(1-(4-chloro-2-fluorobenzyl)-3-(trifluoromethyl)-4,5-dihydro-1H-pyrazolo[3,4-c]pyridin-6(7H)-yl)-2-oxoethyl)-1-methylcyclohexanecarboxylic acid] | ≤ 100 nM | 
O=C(C[C@H]1CC[C@@H](C(=O)O)CC1)N1CCc2c(C(F)(F)F)nn(Cc3ccc(F)cc3)c2C1 [Example 7-2, cis-4-(2-(1-(4-fluorobenzyl)-3-(trifluoromethyl)-4,5-dihydro-1H-pyrazolo[3,4-c]pyridin-6(7H)-yl)-2-oxoethyl)cyclohexanecarboxylic acid] | ≤ 100 nM | 
O=C(CC1CCCNC1)N1CCc2c(C(F)(F)F)nn(Cc3ccc(F)cc3)c2C1 (stereo not shown) [Example 9-4, 1-(1-(4-Fluorobenzyl)-3-(trifluoromethyl)-4,5-dihydro-1H-pyrazolo[3,4-c]pyridin-6(7H)-yl)-2-(piperidin-3-yl)ethanone HCl salt] | ≤ 100 nM | 
O=C(O)CC1CN(CC(=O)N2CCc3c(C(F)(F)F)nn(Cc4ccc(Cl)cc4F)c3C2)C1 [Example 13-22, 2-(1-(2-(1-(4-Chloro-2-fluorobenzyl)-3-(trifluoromethyl)-4,5-dihydro-1H-pyrazolo[3,4-c]pyridin-6(7H)-yl)-2-oxoethyl)azetidin-3-yl)acetic acid TFA salt] | ≤ 100 nM | 
O=C(O)C1CC2COCC(C1)N2CC(=O)N1CCc2c(C(F)(F)F)nn(Cc3ccc(Cl)cc3F)c2C1 (stereo not shown) [Example 13-27, 9-(2-(1-(4-Chloro-2-fluorobenzyl)-3-(trifluoromethyl)-4,5-dihydro-1H-pyrazolo[3,4-c]pyridin-6(7H)-yl)-2-oxoethyl)-3-oxa-9-azabicyclo[3.3.1]nonane-7-carboxylic acid TFA salt] |  | ≤ 100 nM
CC(C)(C)OC(=O)N1CCC(CC(=O)N2CCc3c(C(F)(F)F)nn(Cc4ccc(Cl)cc4F)c3C2)CC1(C)C (stereo not shown) [Example 8-6, tert-Butyl 4-(2-(1-(4-chloro-2-fluorobenzyl)-3-(trifluoromethyl)-4,5-dihydro-1H-pyrazolo[3,4-c]pyridin-6(7H)-yl)-2-oxoethyl)-2,2-dimethylpiperidine-1-carboxylate] | ≤ 100 nM | 
O=C(O)C1CN(CC(=O)N2CCc3c(C(F)(F)F)nn(Cc4ccc(F)cc4)c3C2)C1 [Example 13-18, 1-(2-(1-(4-Fluorobenzyl)-3-(trifluoromethyl)-4,5-dihydro-1H-pyrazolo[3,4-c]pyridin-6(7H)-yl)-2-oxoethyl)azetidine-3-carboxylic acid TFA salt] | ≤ 100 nM | 

Second part, led by results:

IC50 (FRET assay, read-out: IC50) | Structure (SMILES) | IC50 (IC50, FRET assay)
≤ 100 nM | O=C(C[C@H]1CC[C@H](C(=O)O)CC1)N1CCc2c(C(F)(F)F)nn(Cc3ccc(F)cc3F)c2C1 [Example 5-30, trans-4-(2-(1-(2,4-Difluorobenzyl)-3-(trifluoromethyl)-4,5-dihydro-1H-pyrazolo[3,4-c]pyridin-6(7H)-yl)-2-oxoethyl)cyclohexanecarboxylic acid] | 
≤ 100 nM | O=C(CC1CNCCO1)N1CCc2c(C(F)(F)F)nn(Cc3ccc(Cl)cc3F)c2C1 (stereo not shown) [Example 9-15, 1-(1-(4-Chloro-2-fluorobenzyl)-3-(trifluoromethyl)-4,5-dihydro-1H-pyrazolo[3,4-c]pyridin-6(7H)-yl)-2-(morpholin-2-yl)ethanone TFA salt] | 
≤ 100 nM | CC1(C(=O)O)CCC(CC(=O)N2CCc3c(C(F)(F)F)nn(Cc4ccc(F)cc4)c3C2)CC1 (stereo not shown) [Example 6-11, 4-(2-(1-(4-Fluorobenzyl)-3-(trifluoromethyl)-4,5-dihydro-1H-pyrazolo[3,4-c]pyridin-6(7H)-yl)-2-oxoethyl)-1-methylcyclohexanecarboxylic acid] | 
≤ 100 nM | CC(C)(C)OC(=O)N1CCCC(CC(=O)N2CCc3c(C(F)(F)F)nn(Cc4ccc(F)cc4)c3C2)C1 (stereo not shown) [Example 8-4, tert-Butyl 3-(2-(1-(4-fluorobenzyl)-3-(trifluoromethyl)-4,5-dihydro-1H-pyrazolo[3,4-c]pyridin-6(7H)-yl)-2-oxoethyl)piperidine-1-carboxylate] | 
≤ 100 nM | O=C(CC1CCNC(C(F)(F)F)C1)N1CCc2c(C(F)(F)F)nn(Cc3ccc(Cl)cc3F)c2C1 (stereo not shown) [Example 9-7, 1-(1-(4-Chloro-2-fluorobenzyl)-3-(trifluoromethyl)-4,5-dihydro-1H-pyrazolo[3,4-c]pyridin-6(7H)-yl)-2-(2-(trifluoromethyl)piperidin-4-yl)ethanone TFA salt] | 
≤ 100 nM | O=C(C[C@H]1CC[C@@H](N2CC(F)(F)C2)CC1)N1CCc2c(C(F)(F)F)nn(Cc3ccc(F)cc3)c2C1 [Example 22-7, 2-(cis-4-(3,3-Difluoroazetidin-1-yl)cyclohexyl)-1-(1-(4-fluorobenzyl)-3-(trifluoromethyl)-4,5-dihydro-1H-pyrazolo[3,4-c]pyridin-6(7H)-yl)ethanone TFA salt] | 
≤ 100 nM | O=C(O[C@H]1CC[C@H](C(=O)O)CC1)N1CCc2c(C(F)(F)F)nn(Cc3ccc(Cl)cc3F)c2C1 [Example 7-10, trans-4-((1-(4-chloro-2-fluorobenzyl)-3-(trifluoromethyl)-4,5,6,7-tetrahydro-1H-pyrazolo[3,4-c]pyridine-6-carbonyl)oxy)cyclohexanecarboxylic acid] | 
≤ 100 nM | O=C(C[C@H]1CC[C@@H](C(=O)O)CC1)N1CCc2c(C(F)(F)F)nn(Cc3ccc(Cl)cc3)c2C1 [Example 7-6, cis-4-(2-(1-(4-chlorobenzyl)-3-(trifluoromethyl)-4,5-dihydro-1H-pyrazolo[3,4-c]pyridin-6(7H)-yl)-2-oxoethyl)cyclohexanecarboxylic acid] | 
> 10000 nM | O=C(C1CCn2cncc2C1)N1CCc2c(C(F)(F)F)nn(Cc3ccc(F)cc3)c2C1 (stereo not shown) [Example 1-20, (1-(4-Fluorobenzyl)-3-(trifluoromethyl)-4,5-dihydro-1H-pyrazolo[3,4-c]pyridin-6(7H)-yl)(5,6,7,8-tetrahydroimidazo[1,5-a]pyridin-7-yl)methanone] | 
